This is an account of results in patent US9040530B2, “1,2,4-triazine-6-carboxamide kinase inhibitors” (Portola Pharmaceuticals, Inc., priority 2012, dated 2015).

Structures are written as SMILES.

The target of this test is T1, full length active recombinant SYK enzyme (Homo sapiens, UniProt P43405).
T1 construct: full length active recombinant SYK enzyme (Millipore, Calif.); purchased Millipore
As to the kind of experiment: Inhibition of Syk tyrosine phosphorylation activity (LANCE TR-FRET kinase assay). The note with it: 1 nM active SYK enzyme, 550 nM SYK-substrate, 100 μM ATP, 1 hour at room temperature. The test is classed as biochemical. For orientation: In TR-FRET formats the signal depends on donor and acceptor labels being close together.
Usually IC50 stands for the midpoint of a concentration-inhibition curve. `NC(=O)c1nnc(N[C@@H]2CCCC[C@@H]2N)nc1Nc1ccccc1` [Example 69, 3-(((1R,2S)-2-aminocyclohexyl)amino)-5-(phenylamino)-1,2,4-triazine-6-carboxamide]: the IC50 was in the range of 0.001 to 0.01 µM.

On to `NC(=O)c1nnc(N[C@H](CC(F)(F)F)C(N)=O)nc1Nc1ccc2ncccc2c1` [Example 149, (R)-3-((1-amino-4,4,4-trifluoro-1-oxobutan-2-yl)amino)-5-(quinolin-6-ylamino)-1,2,4-triazine-6-carboxamide], for which the IC50 fell in the range of 0.001 to 0.01 µM.

`NC(=O)c1nnc(N[C@@H]2CCCC[C@@H]2N)nc1Nc1ccc(N2CCOCC2=O)c(F)c1` [Example 33, 3-(((1R,2S)-2-aminocyclohexyl)amino)-5-((3-fluoro-4-(3-oxomorpholino)phenyl)amino)-1,2,4-triazine-6-carboxamide]: the IC50 was 0.1 to 1 µM.

With `Cn1cc(C#N)c2ccc(Nc3nc(N[C@@H]4CCOC[C@@H]4N)nnc3C(N)=O)cc21` [Example 172, 3-(((3R,4R)-3-aminotetrahydro-2H-pyran-4-yl)amino)-5-((3-cyano-1-methyl-1H-indol-6-yl)amino)-1,2,4-triazine-6-carboxamide], the IC50 was 0.001 to 0.01 µM.

As to `NC(=O)c1nnc(N[C@@H]2CCCC[C@@H]2N)nc1Nc1ccc(-c2ncccn2)cc1` [Example 3, 3-(((1R,2S)-2-aminocyclohexyl)amino)-5-((4-(pyrimidin-2-yl)phenyl)amino)-1,2,4-triazine-6-carboxamide], the IC50 was 0.001 to 0.01 µM.

Regarding `Cc1ccc(Nc2nc(N[C@@H]3CCCC[C@@H]3N)nnc2C(N)=O)cc1` [Example 8, 3-(((1R,2S)-2-aminocyclohexyl)amino)-5-(p-tolylamino)-1,2,4-triazine-6-carboxamide], the IC50 lay in the range of 0.001 to 0.01 µM.

As to `NC(=O)c1nnc(N[C@@H]2CCCC[C@@H]2N)nc1Nc1cnc2c(F)cccc2c1` [Example 160, 3-(((1R,2S)-2-aminocyclohexyl)amino)-5-((8-fluoroquinolin-3-yl)amino)-1,2,4-triazine-6-carboxamide], the IC50 was 0.001 to 0.01 µM.

`Cn1ncc2c(Nc3nc(N[C@@H]4CCOC[C@@H]4N)nnc3C(N)=O)cccc21` [Example 139, 3-(((3R,4R)-3-aminotetrahydro-2H-pyran-4-yl)amino)-5-((1-methyl-1H-indazol-4-yl)amino)-1,2,4-triazine-6-carboxamide]: the IC50 was in the range of 0.01 to 0.1 µM.

`CC[C@@H](Nc1nnc(C(N)=O)c(Nc2ccc3cn(C)nc3c2)n1)C(N)=O` [Example 179, (R)-3-((1-amino-1-oxobutan-2-yl)amino)-5-((2-methyl-2H-indazol-6-yl)amino)-1,2,4-triazine-6-carboxamide]: the IC50 was 0.001 to 0.01 µM.

`NC(=O)c1nnc(N[C@@H]2CCCC[C@@H]2N)nc1Nc1cccc(-n2cccn2)c1` [Example 6, 5-(3-(1H-pyrazol-1-yl)phenylamino)-3-((1R,2S)-2-aminocyclohexylamino)-1,2,4-triazine-6-carboxamide]: the IC50 fell in the range of 0.001 to 0.01 µM.

As to `NC(=O)c1nnc(N[C@@H]2CCCC[C@@H]2N)nc1Nc1cccc(OC(F)F)c1` [Example 124, 3-(((1R,2S)-2-aminocyclohexyl)amino)-5-((3-(difluoromethoxy)phenyl)amino)-1,2,4-triazine-6-carboxamide], the IC50 was in the range of 0.001 to 0.01 µM.

Consider `NC(=O)c1nnc(N[C@H](CC(F)F)C(N)=O)nc1Nc1ccc2ncccc2c1` [Example 150, (R)-3-((1-amino-4,4-difluoro-1-oxobutan-2-yl)amino)-5-(quinolin-6-ylamino)-1,2,4-triazine-6-carboxamide], for which the IC50 fell in the range of 0.001 to 0.01 µM.

On to `CC[C@@H](Nc1nnc(C(N)=O)c(Nc2cc(C)cc(F)c2)n1)C(N)=O` [Example 197, (R)-3-((1-amino-1-oxobutan-2-yl)amino)-5-((3-fluoro-5-methylphenyl)amino)-1,2,4-triazine-6-carboxamide], for which the IC50 was 0.01 to 0.1 µM.

For the molecule `NC(=O)c1nnc(N[C@@H]2CCCC(F)(F)[C@@H]2N)nc1Nc1ccc(-c2ncco2)cc1` [Example 132, 3-(((1R,2R)-2-amino-3,3-difluorocyclohexyl)amino)-5-((4-(oxazol-2-yl)phenyl)amino)-1,2,4-triazine-6-carboxamide], the IC50 was 0.01 to 0.1 µM.

For `COC[C@@H](Nc1nnc(C(N)=O)c(Nc2ccc(C)cc2)n1)C(N)=O` [Example 187, (R)-3-(1-amino-3-methoxy-1-oxopropan-2-ylamino)-5-(p-tolylamino)-1,2,4-triazine-6-carboxamide], the IC50 fell in the range of 0.1 to 1 µM.

With `NC(=O)c1nnc(N[C@@H]2CCCC(F)(F)[C@@H]2N)nc1Nc1ccc2c(c1)CS(=O)(=O)C2` [Example 217, 3-(((1R,2R)-2-amino-3,3-difluorocyclohexyl)amino)-5-((2,2-dioxido-1,3-dihydrobenzo[c]thiophen-5-yl)amino)-1,2,4-triazine-6-carboxamide], the concentration for half-maximal inhibition (IC50) is 0.1 to 1 µM.

Take `NC(=O)c1nnc(N[C@@H]2CCCC[C@@H]2N)nc1Nc1cnc2cc(F)ccc2c1` [Example 158, 3-(((1R,2S)-2-aminocyclohexyl)amino)-5-((7-fluoroquinolin-3-yl)amino)-1,2,4-triazine-6-carboxamide]: the IC50 lay in the range of 0.001 to 0.01 µM.

As to `NC(=O)c1nnc(N[C@@H]2CCCC[C@@H]2N)nc1Nc1cncc(F)c1` [Example 14, 3-(((1R,2S)-2-aminocyclohexyl)amino)-5-((5-fluoropyridin-3-yl)amino)-1,2,4-triazine-6-carboxamide], the IC50 is 0.1 to 1 µM.

`CC(C)C[C@@H](Nc1nnc(C(N)=O)c(Nc2ccc3cc[nH]c3c2)n1)C(N)=O` [Example 103, (R)-5-((1H-indol-6-yl)amino)-3-((1-amino-4-methyl-1-oxopentan-2-yl)amino)-1,2,4-triazine-6-carboxamide]: the IC50 is 0.001 to 0.01 µM.

Regarding `CC[C@@H](Nc1nnc(C(N)=O)c(Nc2ccc3c(cnn3C)c2)n1)C(N)=O` [Example 110, (R)-3-((1-amino-1-oxobutan-2-yl)amino)-5-((1-methyl-1H-indazol-5-yl)amino)-1,2,4-triazine-6-carboxamide], the IC50 is 0.01 to 0.1 µM.

Consider `CC[C@@H](Nc1nnc(C(N)=O)c(Nc2ccc3c(c2)COCC3)n1)C(N)=O` [Example 227, (R)-3-((1-amino-1-oxobutan-2-yl)amino)-5-(isochroman-7-ylamino)-1,2,4-triazine-6-carboxamide], for which the IC50 was 0.001 to 0.01 µM.

With `CC[C@@H](Nc1nnc(C(N)=O)c(Nc2cnc3ccc(F)cc3c2)n1)C(N)=O` [Example 123, (R)-3-((1-amino-1-oxobutan-2-yl)amino)-5-((6-fluoroquinolin-3-yl)amino)-1,2,4-triazine-6-carboxamide], the IC50 lay in the range of 0.01 to 0.1 µM.

For `Cn1ncc2ccc(Nc3nc(N[C@H](CC(F)F)C(N)=O)nnc3C(N)=O)cc21` [Example 184, (R)-3-((1-amino-4,4-difluoro-1-oxobutan-2-yl)amino)-5-((1-methyl-1H-indazol-6-yl)amino)-1,2,4-triazine-6-carboxamide], the IC50 was less than 0.001 µM.

`NC(=O)c1nnc(N[C@@H]2CCCC(F)(F)[C@@H]2N)nc1Nc1ccc(Cl)c(Cl)c1` [Example 236, 3-(((1R,2R)-2-amino-3,3-difluorocyclohexyl)amino)-5-((3,4-dichlorophenyl)amino)-1,2,4-triazine-6-carboxamide]: the IC50 lay in the range of 0.1 to 1 µM.

As for `NC(=O)c1nnc(N[C@@H]2CCCC[C@@H]2N)nc1Nc1ccc(C(=O)N2CCC2)cc1` [Example 63, 3-(((1R,2S)-2-aminocyclohexyl)amino)-5-((4-(azetidine-1-carbonyl)phenyl)amino)-1,2,4-triazine-6-carboxamide], the IC50 lay within 0.01 to 0.1 µM.

Take `CC(C)C[C@@H](Nc1nnc(C(N)=O)c(Nc2ccc(Cl)c(Cl)c2)n1)C(N)=O` [Example 255, (R)-3-((1-amino-4-methyl-1-oxopentan-2-yl)amino)-5-((3,4-dichlorophenyl)amino)-1,2,4-triazine-6-carboxamide]: the IC50 lay within 0.01 to 0.1 µM.

Regarding `Cc1cccc(Nc2nc(N[C@@H]3CCCC[C@@H]3N)nnc2C(N)=O)c1` [Example 11, 3-(((1R,2S)-2-aminocyclohexyl)amino)-5-(m-tolylamino)-1,2,4-triazine-6-carboxamide], the IC50 was less than 0.001 µM.

`Cn1ccc2c(Nc3nc(NCc4cc[nH]n4)nnc3C(N)=O)cccc21` [Example 91, 3-(((1H-pyrazol-3-yl)methyl)amino)-5-((1-methyl-1H-indol-4-yl)amino)-1,2,4-triazine-6-carboxamide]: the IC50 lay in the range of 0.1 to 1 µM.

For `CC[C@@H](Nc1nnc(C(N)=O)c(Nc2ccc(Cl)c(Cl)c2)n1)C(N)=O` [Example 235, (R)-3-((1-amino-1-oxobutan-2-yl)amino)-5-((3,4-dichlorophenyl)amino)-1,2,4-triazine-6-carboxamide], the IC50 fell in the range of 0.01 to 0.1 µM.

In the case of `NC(=O)c1nnc(N[C@@H]2CCOC[C@@H]2N)nc1Nc1cccc(-c2ncco2)c1` [Example 252, 3-(((3R,4R)-3-aminotetrahydro-2H-pyran-4-yl)amino)-5-((3-(oxazol-2-yl)phenyl)amino)-1,2,4-triazine-6-carboxamide], the IC50 lay in the range of 0.001 to 0.01 µM.

As for `CC[C@@H](Nc1nnc(C(N)=O)c(Nc2ccc3c(c2)CCOC3)n1)C(N)=O` [Example 212, (R)-3-((1-amino-1-oxobutan-2-yl)amino)-5-(isochroman-6-ylamino)-1,2,4-triazine-6-carboxamide], the IC50 was 0.01 to 0.1 µM.

`NC(=O)c1nnc(N[C@@H]2CCCC(F)(F)[C@@H]2N)nc1Nc1ccc2c(c1)CCOC2` [Example 214, 3-(((1R,2R)-2-amino-3,3-difluorocyclohexyl)amino)-5-(isochroman-6-ylamino)-1,2,4-triazine-6-carboxamide]: the IC50 fell in the range of 0.01 to 0.1 µM.

`NC(=O)c1nnc(N[C@H](CC(F)F)C(N)=O)nc1Nc1cc(Cl)c2ncccc2c1` [Example 185, (R)-3-((1-amino-4,4-difluoro-1-oxobutan-2-yl)amino)-5-((8-chloroquinolin-6-yl)amino)-1,2,4-triazine-6-carboxamide]: the half-inhibitory concentration (IC50) is 0.001 to 0.01 µM.

Regarding `CC[C@@H](Nc1nnc(C(N)=O)c(Nc2ccc3cn[nH]c3c2)n1)C(N)=O` [Example 128, (R)-5-((1H-indazol-6-yl)amino)-3-((1-amino-1-oxobutan-2-yl)amino)-1,2,4-triazine-6-carboxamide], the IC50 lay within 0.001 to 0.01 µM.
